39 molecules from patent US11759455B2, “Substituted 1H-imidazo[4,5-b]pyridin-2(3H)-ones and their use as GLUN2B receptor modulators” (JANSSEN PHARMACEUTICA NV, priority 2016, dated 2023) can be followed below.

What is called IC50 is the concentration that gives 50% inhibition.

T1 sequence (Q13224 27-1484, other chains not shown): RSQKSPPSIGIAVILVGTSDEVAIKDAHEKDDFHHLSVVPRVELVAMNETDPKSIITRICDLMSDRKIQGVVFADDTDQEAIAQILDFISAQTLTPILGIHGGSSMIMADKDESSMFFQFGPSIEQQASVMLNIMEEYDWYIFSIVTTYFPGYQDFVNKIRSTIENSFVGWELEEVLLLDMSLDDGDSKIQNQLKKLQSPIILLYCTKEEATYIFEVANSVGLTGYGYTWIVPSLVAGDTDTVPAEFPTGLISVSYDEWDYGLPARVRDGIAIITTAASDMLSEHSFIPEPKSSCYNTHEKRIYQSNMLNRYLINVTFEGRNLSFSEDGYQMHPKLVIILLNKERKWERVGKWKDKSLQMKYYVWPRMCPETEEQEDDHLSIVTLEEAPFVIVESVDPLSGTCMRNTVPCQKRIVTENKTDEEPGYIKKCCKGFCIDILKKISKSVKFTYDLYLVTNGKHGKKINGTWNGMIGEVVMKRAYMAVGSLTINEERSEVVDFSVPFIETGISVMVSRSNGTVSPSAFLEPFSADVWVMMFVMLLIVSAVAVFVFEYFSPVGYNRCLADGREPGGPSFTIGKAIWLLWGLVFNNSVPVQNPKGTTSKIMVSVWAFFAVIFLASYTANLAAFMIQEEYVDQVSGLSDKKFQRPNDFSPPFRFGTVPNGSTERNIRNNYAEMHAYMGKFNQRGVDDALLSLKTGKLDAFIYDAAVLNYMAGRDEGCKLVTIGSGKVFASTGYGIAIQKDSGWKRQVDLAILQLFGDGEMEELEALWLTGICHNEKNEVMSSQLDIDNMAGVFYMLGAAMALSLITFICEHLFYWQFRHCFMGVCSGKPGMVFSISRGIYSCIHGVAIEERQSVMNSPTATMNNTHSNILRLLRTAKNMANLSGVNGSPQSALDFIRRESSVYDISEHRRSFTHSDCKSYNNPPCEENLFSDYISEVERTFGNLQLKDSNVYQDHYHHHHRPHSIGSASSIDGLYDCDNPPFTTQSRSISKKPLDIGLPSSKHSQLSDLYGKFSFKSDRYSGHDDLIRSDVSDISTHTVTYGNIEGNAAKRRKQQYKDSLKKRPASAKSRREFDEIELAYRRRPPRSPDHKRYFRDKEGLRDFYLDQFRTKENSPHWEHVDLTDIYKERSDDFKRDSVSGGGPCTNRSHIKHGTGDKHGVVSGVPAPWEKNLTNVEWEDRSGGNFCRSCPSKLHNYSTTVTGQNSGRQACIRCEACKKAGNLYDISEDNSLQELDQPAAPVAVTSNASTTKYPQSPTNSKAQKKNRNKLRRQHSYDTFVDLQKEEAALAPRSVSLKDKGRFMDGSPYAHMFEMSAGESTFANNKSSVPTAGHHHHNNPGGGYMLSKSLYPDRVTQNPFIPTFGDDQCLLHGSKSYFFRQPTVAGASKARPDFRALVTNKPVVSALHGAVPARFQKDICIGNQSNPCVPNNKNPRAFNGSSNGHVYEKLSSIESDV

The experiment concerns the target T1, human GluN1/GluN2B NMDA receptors (Homo sapiens, UniProt Q13224).
T1 construct: expressed in transfected cells
As to the kind of experiment: Cell-based calcium flux (FLIPR) assay on cloned human NR1/NR2B ion channels expressed in mammalian cells (standard and HTS buffer variants).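 Further: stable Tet-On inducible cell line, Ca2+ influx triggered by glutamate at about EC40 plus 10 µM glycine, fluorescent dye read-out over 5 min, normalized to control wells.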 Conditions: standard assay buffer (0.5 mM MgCl2 dye loading; 137 mM NaCl, 4 mM KCl assay buffer), human GluN1/GluN2B cells, read-out: NR2B IC50 (μM) standard assay. (Calcium assays in cells follow changes in intracellular calcium, usually with a dye or a luminescent sensor.)
For the molecule `O=c1[nH]c2ncc(-c3cccc(C(F)(F)F)c3)cc2n1Cc1ccc(C(F)(F)F)nc1` [Example 257, 6-[3-(Trifluoromethyl)phenyl]-1-[[6-(trifluoromethyl)-3-pyridyl]methyl]-3H-imidazo[4,5-b]pyridin-2-one], the half-inhibitory concentration (IC50) was determined as 1.46 µM.
In the case of `O=c1[nH]c2ncc(-c3cccc(C(F)(F)F)c3)cc2n1Cc1cncc(F)c1` [Example 258, 1-[(5-Fluoro-3-pyridyl)methyl]-6-[3-(trifluoromethyl)phenyl]-3H-imidazo[4,5-b]pyridin-2-one] it was 0.077 µM; in that of `O=c1[nH]c2ncc(-c3cccc(C(F)(F)F)c3)cc2n1Cc1cncc(C(F)(F)F)c1` [Example 259, 6-[3-(Trifluoromethyl)phenyl]-1-[[5-(trifluoromethyl)-3-pyridyl]methyl]-3H-imidazo[4,5-b]pyridin-2-one], 1.03 µM.
In the case of `O=c1[nH]c2ncc(-c3cccc(C(F)(F)F)c3)cc2n1Cc1cnccc1C(F)(F)F` [Example 260, 6-[3-(Trifluoromethyl)phenyl]-1-[[4-(trifluoromethyl)-3-pyridyl]methyl]-3H-imidazo[4,5-b]pyridin-2-one], the IC50 amounted to 2.86 µM.
In the case of `Cn1c(=O)n(Cc2ncccn2)c2cc(-c3cccc(C(F)(F)F)c3)cnc21` [Example 261, 3-Methyl-1-(pyrimidin-2-ylmethyl)-6-[3-(trifluoromethyl)phenyl]imidazo[4,5-b]pyridin-2-one] it was 0.573 µM; in that of `O=C(Cn1c(=O)[nH]c2ncc(-c3cccc(C(F)(F)F)c3)cc21)C1CCC1` [Example 262, 1-(2-cyclobutyl-2-oxo-ethyl)-6-[3-(trifluoromethyl)phenyl]-3H-imidazo[4,5-b]pyridin-2-one], 0.308 µM; in that of `Cc1cncc(Cn2c(=O)[nH]c3ncc(-c4ccc(F)c(C)c4)cc32)c1` [Example 269, 6-(4-Fluoro-3-methyl-phenyl)-1-[(5-methyl-3-pyridyl)methyl]-3H-imidazo[4,5-b]pyridin-2-one], 0.128 µM.
On to `Cc1cncc(Cn2c(=O)[nH]c3ncc(-c4ccc(F)c(C)c4F)cc32)c1` [Example 270, 6-(2,4-Difluoro-3-methyl-phenyl)-1-[(5-methyl-3-pyridyl)methyl]-3H-imidazo[4,5-b]pyridin-2-one], for which the IC50 came to 0.115 µM.
For the molecule `Cc1cncc(Cn2c(=O)[nH]c3ncc(-c4ccc(F)c(F)c4)cc32)c1` [Example 272, 6-(3,4-Difluorophenyl)-1-[(5-methyl-3-pyridyl)methyl]-3H-imidazo[4,5-b]pyridin-2-one], the IC50 worked out at 0.034 µM.
In the case of `Cc1cncc(Cn2c(=O)[nH]c3ncc(-c4cccc(Cl)c4)cc32)c1` [Example 273, 6-(3-Chlorophenyl)-1-[(5-methyl-3-pyridyl)methyl]-3H-imidazo[4,5-b]pyridin-2-one], the IC50 was 0.096 µM.
Consider `Cc1cncc(Cn2c(=O)[nH]c3ncc(-c4cccc(F)c4)cc32)c1` [Example 274, 6-(3-Fluorophenyl)-1-[(5-methyl-3-pyridyl)methyl]-3H-imidazo[4,5-b]pyridin-2-one], for which the IC50 was found to be 0.057 µM.
In the case of `Cc1ccncc1Cn1c(=O)[nH]c2ncc(-c3ccc(F)c(F)c3)cc21` [Example 275, 6-(3,4-Difluorophenyl)-1-[(4-methyl-3-pyridyl)methyl]-3H-imidazo[4,5-b]pyridin-2-one] it was 0.009 µM; in that of `Cc1ccncc1Cn1c(=O)[nH]c2ncc(-c3cccc(F)c3)cc21` [Example 276, 6-(3-Fluorophenyl)-1-[(4-methyl-3-pyridyl)methyl]-3H-imidazo[4,5-b]pyridin-2-one], 0.034 µM.
On to `Cc1cc(-c2cnc3[nH]c(=O)n(Cc4cnccc4C)c3c2)ccc1F` [Example 277, 6-(4-Fluoro-3-methyl-phenyl)-1-[(4-methyl-3-pyridyl)methyl]-3H-imidazo[4,5-b]pyridin-2-one], for which the IC50 turned out to be 0.077 µM.
The value for `Cc1ccncc1Cn1c(=O)[nH]c2ncc(-c3ccc(F)c(C)c3F)cc21` [Example 278, 6-(2,4-Difluoro-3-methyl-phenyl)-1-[(4-methyl-3-pyridyl)methyl]-3H-imidazo[4,5-b]pyridin-2-one] was 0.111 µM.
The value for `O=c1[nH]c2ncc(-c3ccc(F)c(F)c3)cc2n1Cc1ccccn1` [Example 279, 6-(3,4-Difluorophenyl)-1-(2-pyridylmethyl)-3H-imidazo[4,5-b]pyridin-2-one] was 5.03 µM; that for `Cc1c(F)ccc(-c2cnc3[nH]c(=O)n(Cc4ccccn4)c3c2)c1F` [Example 280, 6-(2,4-Difluoro-3-methyl-phenyl)-1-(2-pyridylmethyl)-3H-imidazo[4,5-b]pyridin-2-one] was 0.576 µM.
For the molecule `O=c1[nH]c2ncc(-c3cccc(F)c3)cc2n1Cc1ccccn1` [Example 281, 6-(3-Fluorophenyl)-1-(2-pyridylmethyl)-3H-imidazo[4,5-b]pyridin-2-one], the half-maximal inhibitory concentration (IC50) amounted to 0.932 µM.
Turning to `O=c1[nH]c2ncc(-c3cccc(Cl)c3)cc2n1Cc1ccccn1` [Example 282, 6-(3-Chlorophenyl)-1-(2-pyridylmethyl)-3H-imidazo[4,5-b]pyridin-2-one], the IC50 was 2.61 µM.
The value for `Cc1cc(-c2cnc3[nH]c(=O)n(Cc4ccccn4)c3c2)ccc1F` [Example 283, 6-(4-Fluoro-3-methyl-phenyl)-1-(2-pyridylmethyl)-3H-imidazo[4,5-b]pyridin-2-one] was 0.079 µM; that for `Cc1cccnc1Cn1c(=O)[nH]c2ncc(-c3ccc(F)c(F)c3)cc21` [Example 284, 6-(3,4-Difluorophenyl)-1-[(3-methyl-2-pyridyl)methyl]-3H-imidazo[4,5-b]pyridin-2-one] was above 10 µM; that for `Cc1cccnc1Cn1c(=O)[nH]c2ncc(-c3cccc(F)c3)cc21` [Example 285, 6-(3-Fluorophenyl)-1-[(3-methyl-2-pyridyl)methyl]-3H-imidazo[4,5-b]pyridin-2-one] was above 10 µM.
The value for `O=c1[nH]c2ncc(-c3ccc(F)cc3)cc2n1Cc1ccccn1` [Example 286, 6-(4-Fluorophenyl)-1-(2-pyridylmethyl)-3H-imidazo[4,5-b]pyridin-2-one] was 1.98 µM; that for `O=c1[nH]c2ncc(-c3cccc(C(F)F)c3)cc2n1Cc1ccccn1` [Example 287, 6-[3-(Difluoromethyl)phenyl]-1-(2-pyridylmethyl)-3H-imidazo[4,5-b]pyridin-2-one] was 0.107 µM.
As to `COc1cccc(-c2cnc3[nH]c(=O)n(Cc4ccccn4)c3c2)c1` [Example 288, 6-(3-Methoxyphenyl)-1-(2-pyridylmethyl)-3H-imidazo[4,5-b]pyridin-2-one], the half-maximal inhibitory concentration (IC50) was 4.05 µM.
For `Cc1ccc(-c2cnc3[nH]c(=O)n(Cc4ccccn4)c3c2)cc1` [Example 289, 6-(p-Tolyl)-1-(2-pyridylmethyl)-3H-imidazo[4,5-b]pyridin-2-one], the IC50 came to 7.08 µM.
For `O=c1[nH]c2ncc(-c3cccc(F)c3)cc2n1Cc1cccnc1` [Example 290, 6-(3-fluorophenyl)-1-(3-pyridylmethyl)-3H-imidazo[4,5-b]pyridin-2-one], the IC50 was found to be 0.065 µM.
The value for `O=c1[nH]c2ncc(-c3cccc(C(F)F)c3)cc2n1Cc1cccnc1` [Example 291, 6-[3-(Difluoromethyl)phenyl]-1-(3-pyridylmethyl)-3H-imidazo[4,5-b]pyridin-2-one] was 0.022 µM; that for `O=c1[nH]c2ncc(-c3ccc(F)c(F)c3)cc2n1Cc1cccnc1` [Example 292, 6-(3,4-Difluorophenyl)-1-(3-pyridylmethyl)-3H-imidazo[4,5-b]pyridin-2-one] was 0.06 µM; that for `Cc1c(F)ccc(-c2cnc3[nH]c(=O)n(Cc4cccnc4)c3c2)c1F` [Example 293, 6-(2,4-Difluoro-3-methyl-phenyl)-1-(3-pyridylmethyl)-3H-imidazo[4,5-b]pyridin-2-one] was 0.017 µM.
`Cc1cc(-c2cnc3[nH]c(=O)n(Cc4cccnc4)c3c2)ccc1F` [Example 294, 6-(4-Fluoro-3-methyl-phenyl)-1-(3-pyridylmethyl)-3H-imidazo[4,5-b]pyridin-2-one]: the 50% inhibitory concentration (IC50) is 0.023 µM.
In the case of `O=c1[nH]c2ncc(-c3ccc(F)cc3)cc2n1Cc1cccnc1` [Example 295, 6-(4-Fluorophenyl)-1-(3-pyridylmethyl)-3H-imidazo[4,5-b]pyridin-2-one] it was 0.098 µM; in that of `O=c1[nH]c2ncc(-c3cccc(Cl)c3)cc2n1Cc1cccnc1` [Example 296, 6-(3-Chlorophenyl)-1-(3-pyridylmethyl)-3H-imidazo[4,5-b]pyridin-2-one], 0.029 µM; in that of `Cc1cccc(-c2cnc3[nH]c(=O)n(Cc4cccnc4)c3c2)c1` [Example 297, 6-(m-Tolyl)-1-(3-pyridylmethyl)-3H-imidazo[4,5-b]pyridin-2-one], 0.027 µM.
The value for `O=c1[nH]c2ncc(-c3ccc(F)c(F)c3)cc2n1Cc1cncc(F)c1` [Example 298, 6-(3,4-Difluorophenyl)-1-[(5-fluoro-3-pyridyl)methyl]-3H-imidazo[4,5-b]pyridin-2-one] was 0.032 µM; that for `Cc1cc(-c2cnc3[nH]c(=O)n(Cc4cncc(F)c4)c3c2)ccc1F` [Example 299, 6-(4-Fluoro-3-methyl-phenyl)-1-[(5-fluoro-3-pyridyl)methyl]-3H-imidazo[4,5-b]pyridin-2-one] was 0.019 µM.
As to `O=c1[nH]c2ncc(-c3cccc(OC(F)F)c3)cc2n1Cc1cccnc1` [Example 300, 6-[3-(Difluoromethoxy)phenyl]-1-(3-pyridylmethyl)-3H-imidazo[4,5-b]pyridin-2-one], the IC50 was 0.03 µM.
In the case of `Cc1c(F)ccc(-c2cnc3[nH]c(=O)n(Cc4cncc(F)c4)c3c2)c1F` [Example 301, 6-(2,4-Difluoro-3-methyl-phenyl)-1-[(5-fluoro-3-pyridyl)methyl]-3H-imidazo[4,5-b]pyridin-2-one] it was 0.045 µM; in that of `O=c1[nH]c2ncc(-c3cccc(C(F)F)c3)cc2n1Cc1cncc(F)c1` [Example 302, 6-[3-(Difluoromethyl)phenyl]-1-[(5-fluoro-3-pyridyl)methyl]-3H-imidazo[4,5-b]pyridin-2-one], 0.022 µM.
